Measured values: article PMC4661928, “Production of Two Novel Methoxy-Isoflavones from Biotransformation of 8-Hydroxydaidzein by Recombinant Escherichia coli Expressing O-Methyltransferase SpOMT2884 from Streptomyces peucetius” (International Journal of Molecular Sciences, 2015)

Biological target: T1, SpOMT2884 (Streptomyces peucetius, UniProt T1WTM5)
T1 construct: gene OMT2884; codon-optimised synthetic gene in pETDuet-1 (NdeI/XhoI), expressed in E. coli BL21(DE3); whole-cell biotransformation, not purified
T1 sequence (T1WTM5 1-223): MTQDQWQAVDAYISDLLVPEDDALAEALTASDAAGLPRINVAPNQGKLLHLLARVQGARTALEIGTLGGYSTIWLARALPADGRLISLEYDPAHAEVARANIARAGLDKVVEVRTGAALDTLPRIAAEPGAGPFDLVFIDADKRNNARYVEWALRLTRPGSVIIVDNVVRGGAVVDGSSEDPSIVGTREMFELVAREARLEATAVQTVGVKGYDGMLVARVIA
Experiment: whole-cell biotransformation, UPLC; products by MS and NMR
Type: cell-based
Settings: recombinant E. coli BL21(DE3), 0.1 mM substrate, 37 °C, endogenous SAM; 7-O- and 8-O-methylation

## O=c1c(-c2ccc(O)cc2)coc2c(O)c(O)ccc12 [8-hydroxydaidzein]
  whole-cell biotransformation, UPLC; products by MS and NMR: SpOMT2884 catalyzes either 7-O-methylation or 8-O-methylation in 8-hydroxydaidzein
